Measured values from patent US5639783A, “Ketone derivatives” (Mitsubishi Chemical Corporation, priority 1991, dated 1997).
Where two headings read alike, the source gives them in different places.

Assays:
Type in all cases: biochemical
papain = molecular target: T1, papain (Carica papaya, UniProt P00784); experiment: Thiol protease inhibitory activity, papain (P-3125, Sigma)
T1 sequence (P00784 134-345): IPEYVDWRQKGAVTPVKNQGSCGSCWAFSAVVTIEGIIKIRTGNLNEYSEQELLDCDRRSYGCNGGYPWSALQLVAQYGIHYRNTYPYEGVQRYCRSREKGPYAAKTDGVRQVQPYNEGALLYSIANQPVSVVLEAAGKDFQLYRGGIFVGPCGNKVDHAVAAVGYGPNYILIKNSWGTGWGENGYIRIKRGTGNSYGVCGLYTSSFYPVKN
Protocol: (§1) Inhibitory activity against papain (P-3125, Sigma) and cathepsin B (C-6286, Sigma) was assayed according to the method described in a literature [Biochemical Journal, 201, 189 (1982)]. Cathepsin L was purified from rat kidney according to the method in a literature [Journal of Biochemistry, 100, 35 (1986)], and the inhibitory activity against it was assayed in the same manner as described in the above literature for cathepsin B. Furthermore, m-calpain was purified from rat brain according to a known method [Journal of Biological Chemistry, 254, p. 3210 (1984)] and the inhibitory activity against it was assayed by a method described in a literature [Journal of Biological Chemistry, 259, 12489 (1984)]. It is evident from Tables 3 and 4 that the compounds of the present invention have a potent inhibitory activity against thiol proteases such as papain, cathepsin B, cathepsin L or m-calpain.

cathepsin B = molecular target: T2, cathepsin B (Bos taurus, UniProt P07688); experiment: Thiol protease inhibitory activity, cathepsin B (C-6286, Sigma); details: Table 3
T2 construct: purchased Sigma C-6286
Protocol: as §1

cathepsin L = molecular target: T3, cathepsin L (Rattus norvegicus, UniProt P07154); experiment: Thiol protease inhibitory activity, cathepsin L purified from rat kidney; details: Table 3
T3 construct: Cathepsin L was purified from rat kidney; from tissue; host or cells: rat kidney
Protocol: as §1

m-calpain = molecular target: T4, m-calpain (Rattus norvegicus, UniProt Q07009); experiment: Thiol protease inhibitory activity, m-calpain purified from rat brain; details: Table 3
T4 construct: m-calpain was purified from rat brain; from tissue; host or cells: rat brain
T4 sequence (Q07009 20-700 limits assumed): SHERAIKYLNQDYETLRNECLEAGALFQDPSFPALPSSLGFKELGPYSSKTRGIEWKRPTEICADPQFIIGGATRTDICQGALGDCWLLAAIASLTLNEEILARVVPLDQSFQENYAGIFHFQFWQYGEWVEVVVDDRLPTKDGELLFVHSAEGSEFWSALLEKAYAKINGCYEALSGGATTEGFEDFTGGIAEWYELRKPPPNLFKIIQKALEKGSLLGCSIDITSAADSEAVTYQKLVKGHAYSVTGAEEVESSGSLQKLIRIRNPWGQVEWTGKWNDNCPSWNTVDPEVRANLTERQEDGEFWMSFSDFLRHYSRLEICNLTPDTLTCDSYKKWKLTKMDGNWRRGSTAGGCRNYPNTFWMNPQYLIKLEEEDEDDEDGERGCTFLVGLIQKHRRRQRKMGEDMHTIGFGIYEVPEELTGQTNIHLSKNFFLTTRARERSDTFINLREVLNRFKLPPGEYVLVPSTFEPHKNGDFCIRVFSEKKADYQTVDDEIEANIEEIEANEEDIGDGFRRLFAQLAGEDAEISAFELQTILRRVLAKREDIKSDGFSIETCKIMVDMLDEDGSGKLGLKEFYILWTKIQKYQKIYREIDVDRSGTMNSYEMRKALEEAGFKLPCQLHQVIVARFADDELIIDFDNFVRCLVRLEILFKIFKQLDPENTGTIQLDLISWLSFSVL
T4 sequence (Q64537 1-270 partner): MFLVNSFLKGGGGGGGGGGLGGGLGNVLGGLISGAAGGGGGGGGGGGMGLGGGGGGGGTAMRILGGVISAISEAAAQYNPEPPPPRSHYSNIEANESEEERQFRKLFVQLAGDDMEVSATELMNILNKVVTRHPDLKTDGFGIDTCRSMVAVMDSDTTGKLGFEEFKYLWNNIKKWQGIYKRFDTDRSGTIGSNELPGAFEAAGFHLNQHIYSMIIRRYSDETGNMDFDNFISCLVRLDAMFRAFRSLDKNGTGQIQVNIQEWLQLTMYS
Protocol: as §1

T3 sequence (P07154 114-334): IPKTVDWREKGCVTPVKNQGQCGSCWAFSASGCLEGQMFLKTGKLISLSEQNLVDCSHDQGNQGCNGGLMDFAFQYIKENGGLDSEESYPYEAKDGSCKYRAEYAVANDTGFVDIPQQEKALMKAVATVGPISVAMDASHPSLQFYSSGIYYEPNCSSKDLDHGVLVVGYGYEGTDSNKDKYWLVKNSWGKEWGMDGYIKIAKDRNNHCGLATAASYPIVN

CCCC[C@H](NC(=O)[C@H](CC(C)C)NC(=O)COc1cccc(Cl)c1Cl)C(=O)CSCc1ccco1 [41 (No. 91), (s)-3-[(s)-2-(2,3-dichlorophenoxyacetylamino)-4-methylvalerylamino]-1-furfurylthio-2-heptanone]
IC50 (papain; Table 3, read-out: IC50 papain): 21 µM
IC50 (cathepsin B): 5.7 µM
IC50 (cathepsin L): 1.1 µM
IC50 (m-calpain): 14 µM

CCCC[C@H](NC(=O)[C@H](CC(C)C)NC(=O)COc1ccc(Cl)cc1Cl)C(=O)CSCc1ccco1 [42 (No. 92), (s)-3-[(s)-2-(2,4-dichlorophenoxyacetylamino)-4-methylvalerylamino]-1-furfurylthio-2-heptanone]
IC50 (papain; Table 3, read-out: IC50 papain): 4.5 µM
IC50 (cathepsin B): 1.9 µM
IC50 (cathepsin L): 0.74 µM
IC50 (m-calpain): 23 µM

CCCC[C@H](NC(=O)[C@H](CC(C)C)NC(=O)COc1c(Cl)cc(Cl)cc1Cl)C(=O)CSCc1ccco1 [43 (No. 94), (s)-1-furfurylthio-3-[(s)-4-methyl-2-(2,4,6-trichlorophenoxyacetylamino)valerylamino]-2-heptanone]
IC50 (papain; Table 3, read-out: IC50 papain): 0.37 µM
IC50 (cathepsin B): 0.057 µM
IC50 (cathepsin L): 0.038 µM
IC50 (m-calpain): 5.8 µM

CCCC[C@H](NC(=O)[C@H](CC(C)C)NC(=O)COc1ccccc1C)C(=O)CSCc1ccco1 [44 (No. 96), (s)-1-furfurylthio-3-[(s)-4-methyl-2-(2-methylphenoxyacetylamino)valerylamino]-2-heptanone]
IC50 (papain; Table 3, read-out: IC50 papain): 0.88 µM
IC50 (cathepsin B): 0.17 µM
IC50 (cathepsin L): 0.06 µM
IC50 (m-calpain): 22 µM

CCCC[C@H](NC(=O)[C@H](CC(C)C)NC(=O)COc1cccc(C)c1)C(=O)CSCc1ccco1 [45 (No. 97), (s)-1-furfurylthio-3-[(s)-4-methyl-2-(3-methylphenoxyacetylamino)valerylamino]-2-heptanone]
IC50 (papain; Table 3, read-out: IC50 papain): 0.51 µM
IC50 (cathepsin B): 0.38 µM
IC50 (cathepsin L): 0.19 µM
IC50 (m-calpain): 11 µM

CCCC[C@H](NC(=O)[C@H](CC(C)C)NC(=O)COc1ccc(Cl)cc1C)C(=O)CSCc1ccco1 [46 (No. 100), (s)-3-[(s)-2-(4-chloro-2-methylphenoxyacetylamino)-4-methylvalerylamino]-1-furfurylthio-2-heptanone]
IC50 (papain; Table 3, read-out: IC50 papain): 0.39 µM
IC50 (cathepsin B): 0.4 µM
IC50 (cathepsin L): 0.1 µM
IC50 (m-calpain): 16 µM

CCCC[C@H](NC(=O)[C@H](CC(C)C)NC(=O)CSc1ccccc1)C(=O)CSCc1ccco1 [49 (No. 107), (s)-1-furfurylthio-3-((s)-4-methyl-2-phenylthioacetylaminovalerylamino)-2-heptanone]
IC50 (papain): 0.04 µM
IC50 (cathepsin B): 0.59 µM
IC50 (cathepsin L): 0.67 µM
IC50 (m-calpain): 11 µM

CCCC[C@H](NC(=O)[C@H](CC(C)C)NC(=O)COc1ccc2ccccc2c1)C(=O)CSCc1ccco1 [53 (No. 115), (s)-1-furfurylthio-3-[(s)-4-methyl-2-(2-naphtoxyacetylamino)valerylamino]-2-heptanone]
IC50 (papain; Table 3, read-out: IC50 papain): 9.2 µM
IC50 (cathepsin B): 11 µM
IC50 (cathepsin L): 1.5 µM
IC50 (m-calpain): 6.2 µM

CCCC[C@H](NC(=O)[C@H](CC(C)C)NC(=O)c1ccccc1)C(=O)CSCc1ccco1 [54 (No. 116), (s)-3-((s)-2-benzoylamino-4-methylvalerylamino)-1-furfurylthio-2-heptanone]
IC50 (papain; Table 3, read-out: IC50 papain): 0.38 µM
IC50 (cathepsin B): 0.88 µM
IC50 (cathepsin L): 0.25 µM
IC50 (m-calpain): 14 µM

CCCC[C@H](NC(=O)[C@H](CC(C)C)NC(=O)c1ccc2ccccc2c1)C(=O)CSCc1ccco1 [82 (No. 162), (s)-1-furfurylthio-3-[(s)-4-methyl-2-(2-naphtoylamino)valerylamino]-2-heptanone]
IC50 (papain; Table 3, read-out: IC50 papain): 34 µM
IC50 (cathepsin B): 2.7 µM
IC50 (cathepsin L): 0.32 µM
IC50 (m-calpain): 20 µM

CCCC[C@H](NC(=O)[C@H](CC(C)C)NC(=O)c1cccc2ccccc12)C(=O)CSCc1ccco1 [83 (No. 161), (s)-1-furfurylthio-3-[(s)-4-methyl-2-(1-naphtoylamino)valerylamino]-2-heptanone]
IC50 (papain; Table 3, read-out: IC50 papain): 47 µM
IC50 (cathepsin B): 5 µM
IC50 (cathepsin L): 0.4 µM
IC50 (m-calpain): 12 µM

CCCC[C@H](NC(=O)[C@H](CC(C)C)NC(=O)c1cc2ccccc2o1)C(=O)CSCc1ccco1 [91 (No. 180), (s)-3-[(s)-2-(2-benzofuranylcarbonylamino)-4-methylvalerylamino]-1-furfurylthio-2-heptanone]
IC50 (papain; Table 3, read-out: IC50 papain): 0.16 µM
IC50 (cathepsin B): 0.05 µM
IC50 (cathepsin L): 0.069 µM
IC50 (m-calpain): 14 µM

CC(C)C[C@H](NC(=O)OCc1ccccc1)C(=O)N[C@@H](CC1CCCCC1)C(=O)CSCc1ccco1 [109 (No. 238), (s)-3-((s)-2-benzyloxycarbonylamino-4-methylvalerylamino)-4-cyclohexyl-1-furfurylthio-2-butanone]
IC50 (papain; Table 3, read-out: IC50 papain): 4.2 µM
IC50 (cathepsin B): 1.1 µM
IC50 (cathepsin L): 1.2 µM
IC50 (m-calpain): 13 µM

CC(C)C[C@H](NC(=O)COc1ccccc1)C(=O)N[C@@H](CC1CCCCC1)C(=O)CSCc1ccco1 [110 (No. 240), (s)-4-cyclohexyl-1-furfurylthio-3-((s)-4-methyl-2-phenoxyacetylaminovalerylamino)-2-butanone]
IC50 (papain): 21 µM
IC50 (cathepsin B): 3.3 µM
IC50 (cathepsin L): 0.98 µM
IC50 (m-calpain): 6 µM

CSCC(=O)[C@H](Cc1ccccc1)NC(=O)[C@H](CC(C)C)NC(=O)Cc1cccc2ccccc12 [120 (No. 256), (s)-3-[(s)-4-methyl-2-(1-naphtylacetylamino)valerylamino]-1-methylthio-4-phenyl-2-butanone]
IC50 (papain; Table 3, read-out: IC50 papain): 56 µM
IC50 (cathepsin B): 3.9 µM
IC50 (cathepsin L): 0.49 µM
IC50 (m-calpain): 26 µM

CCC(C)[C@H](NC(=O)OCC1CCCCC1)C(=O)N[C@@H](Cc1ccccc1)C(=O)CSCc1ccco1 (some centres unmarked) [135 (No. 288), (s)-3-((s)-2-cyclohexylmethoxycarbonylamino-3-methylvalerylamino)-1-furfurylthio-4-phenyl-2-butanone]
IC50 (papain; Table 3, read-out: IC50 papain): 59 µM
IC50 (cathepsin B): 0.31 µM
IC50 (cathepsin L): 0.054 µM
IC50 (m-calpain): 3.2 µM

CC(C)C[C@H](NC(=O)OCc1ccccn1)C(=O)N[C@@H](Cc1ccccc1)C(=O)CSCc1ccco1 [150 (No. 313), (s)-1-furfurylthio-3-[(s)-4-methyl-2-(2-pyridylmethoxycarbonylamino)valerylamino]-4-phenyl-2-butanone]
IC50 (papain; Table 3, read-out: IC50 papain): 91 µM
IC50 (cathepsin B): 1.1 µM
IC50 (cathepsin L): 0.27 µM
IC50 (m-calpain): 5.4 µM

CC(C)C[C@H](NC(=O)Cc1cccc2ccccc12)C(=O)N[C@@H](Cc1ccccc1)C(=O)CSCc1ccco1 [159 (No. 333), (s)-1-furfurylthio-3-[(s)-4-methyl-2-(l-naphtylacetylamino)valerylamino]-4-phenyl-2-butanone]
IC50 (papain; Table 3, read-out: IC50 papain): 0.38 µM
IC50 (cathepsin B): 0.75 µM
IC50 (cathepsin L): 1.1 µM
IC50 (m-calpain): 1.9 µM

CC(C)C[C@H](NC(=O)Cc1ccc2ccccc2c1)C(=O)N[C@@H](Cc1ccccc1)C(=O)CSCc1ccco1 [160 (No. 334), (s)-1-furfurylthio-3-[(s)-4-methyl-2-(2-naphtylacetylamino)valerylamino]-4-phenyl-2-butanone]
IC50 (papain; Table 3, read-out: IC50 papain): 35 µM
IC50 (cathepsin B): 3.3 µM
IC50 (cathepsin L): 6.6 µM
IC50 (m-calpain): 28 µM

CC(C)C[C@H](NC(=O)COc1ccccc1)C(=O)N[C@@H](Cc1ccccc1)C(=O)CSCc1ccco1 [164 (No. 348), (s)-1-furfurylthio-3-((s)-4-methyl-2-phenoxyacetylaminovalerylamino)-4-phenyl-2-butanone]
IC50 (papain): 35 µM
IC50 (cathepsin B): 64 µM
IC50 (cathepsin L): 3.2 µM
IC50 (m-calpain): 1.7 µM
